Patent publication US20180346502A1, “Processes for the Preparation of SGLT-2 Inhibitors, Intermediates Thereof” (Emmennar Pharma Private Limited, priority 2017, published 2018)

Assay: Storage stability of amorphous empagliflozin at 5±3°C (HPLC chemical purity, PXRD)
Assay type: physicochemical
Details: for Chemical Purity (HPLC) / PXRD: Temp = 5 ± 3° C.
Experimental: • (a) (1S)-1,5-anhydro-1-C-[4-chloro-3-[[4-[[(3S)-tetrahydro-3-furanyl]oxy]phenyl]methyl]phenyl]-D-glucitol, i.e., empagliflozin (amorphous) • Apparatus: A liquid chromatographic system is to be equipped with variable • wavelength UV-Detector and Integrator. • Column: Promosil C18, 250×4.6 mm, 100 A°, 5 μm or equivalent • Column Temperature: 40° C. • Wavelength: 225 nm • Flow rate: 1.2 mL/min • Injection volume: 5 μL • Run Time: 60 min • Elution: Gradient • Diluent: Acetonitrile: Water (50:50 v/v) • Mobile phase A: Buffer solution • Mobile phase B: Acetonitrile: Water (95:5 v/v) • Buffer solution: Transfer accurately about 1 mL of ortho phosphoric acid into 1000 mL of milli-Q water, filter through 0.45 μm nylon membrane and sonicate to degas. • (b) Amorphous solid dispersion of empagliflozin and ethyl cellulose (EC) • Chromatographic conditions are same as given under (a). • (c) Amorphous solid dispersion of empagliflozin and hydroxypropyl cellulose (HPC) • Chromatographic conditions are same as given under (a), except for: • Wavelength: 220 nm • Column temperature: 35° C. • Mobile Phase B: Acetonitrile: Water (90:10 v/v) • (d) (1S)-1,5-anhydro-1-C-[4-chloro-3-[(4-ethoxyphenyl)methyl] phenyl]-D-glucitol i.e., dapagliflozin • Chromatographic conditions are same as given under (a), except for: • Column temperature: 35° C. • Run Time: 55 min • Mobile Phase B: Acetonitrile: Water (90:10 v/v)
The diffraction patterns were measured using Bruker D2 PHASER diffractometer equipped with LYNXEYE™ detector, used radiation Cu Kα (λ=1.54060 Å), excitation voltage: 30 kV, anode current: 10 mA, measured range: 3-40° 2θ, increment: 0.01° 2θ.

For `OC[C@H]1O[C@@H](c2ccc(Cl)c(Cc3ccc(O[C@H]4CCOC4)cc3)c2)[C@H](O)[C@@H](O)[C@@H]1O` [Empagliflozin, (1S)-1,5-anhydro-1-C-[4-chloro-3-[[4-[[(3S)-tetrahydro-3-furanyl]oxy]phenyl]methyl]phenyl]-D-glucitol], the “Chemical Purity (HPLC)” value (Stability period 1 month) was 99.90, the PXRD (Stability period 1 month) was “Amorphous” and the “Chemical Purity (HPLC)” value (Stability period 3 months) was 99.88. The PXRD (Stability period 3 months) was “Amorphous”, the “Chemical Purity (HPLC)” value (Stability period 6 months) was 99.89 and the PXRD (Stability period 6 months) was “Amorphous”. The “Chemical Purity (HPLC)” value (Stability period 12 months) was 99.88, the PXRD (Stability period 12 months) was “Amorphous” and the “Chemical Purity (HPLC)” value (Stability period Initial) was 99.88. For the same molecule, the PXRD (Stability period Initial) was “Amorphous” and the “stable on storage (period)” value (storage at 5±3° C.) was 12 months.
